In article PMC12678798, “Discovery of an allosteric binding site for anthraquinones at the human P2X4 receptor” (Nature Communications, 2025):
Where two headings read alike, the source gives them in different places.

Columns and labels:
[1] = biological target: T1, chimeric P2X4(P2X2) receptor c10^R301-Q308 (Homo sapiens, UniProt Q99571, A304N/D302K/DEL301-301/E307T/L303I/N306T/Q308T); assay: ATP-induced calcium influx assay, chimeric receptor c10 in 1321N1 astrocytoma cells; type: cell-based
T1 construct: expressed in transfected cells; gene synthesis (Geneart), pLVX-IRES-mCherry (bicistronic, mCherry not fused)
T1 sequence (Q99571 with tags, fused parts or gaps DEL301-301/D302K/L303I/A304N/N306T/E307T/Q308T): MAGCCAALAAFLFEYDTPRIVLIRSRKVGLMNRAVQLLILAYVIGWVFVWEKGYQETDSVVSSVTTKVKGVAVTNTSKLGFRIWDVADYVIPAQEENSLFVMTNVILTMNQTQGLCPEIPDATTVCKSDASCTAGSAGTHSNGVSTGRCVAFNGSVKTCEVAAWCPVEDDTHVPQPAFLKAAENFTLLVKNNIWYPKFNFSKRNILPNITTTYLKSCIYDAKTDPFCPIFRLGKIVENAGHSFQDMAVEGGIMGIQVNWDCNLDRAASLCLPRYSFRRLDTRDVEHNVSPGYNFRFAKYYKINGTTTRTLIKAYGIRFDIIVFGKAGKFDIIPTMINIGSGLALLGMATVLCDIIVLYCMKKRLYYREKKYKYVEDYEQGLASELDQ

[2] = biological target: chimeric P2X4(P2X2) receptor c7^I218-D224 (Homo sapiens, UniProt Q99571, A221E/D220H/I218T/K222A/T223S/Y219F); assay: cell-based
[3] = biological target: T2, wild-type (wt) human (h) P2X4 receptor (Homo sapiens, UniProt Q99571); assay: Two-electrode voltage clamp (TEVC), wt hP2X4 in Xenopus laevis oocytes; type: cell-based; settings: TEVC at -60 mV
T2 construct: host or cells: Xenopus laevis oocytes injected with cRNA (pNKS2 vector)
Procedure: Xenopus laevis frogs were from Nasco International (Fort Atkinson, WI, USA) and kept at the Core Facility Animal Models (CAM) of the BMC of LMU Munich, Germany (Az: 4.3.2–5682/LMU/BMC/CAM) in accordance with the EU Animal Welfare Act. […] Fifty nanoliters of cRNA (0.5 µg/µL) were injected using a Nanoject II injector (Science Products, Drummond, USA) and oocytes were kept in ND96 (96 mM NaCl, 2 mM KCl, 1 mM MgCl2, 1 mM CaCl2, 5 mM HEPES, pH 7.4–7.5) supplemented with 5 μg/mL gentamicin at 16 °C.
cDNA encoding human P2X4 receptor (NM_002560.3) was obtained from BioCat GmbH (Heidelberg, Germany) and cloned into the pNKS2 vector[87] using Gibson Assembly (E2621L, New England Biolabs, USA) according to the manufacturer’s instructions. Point mutations were introduced by site-directed mutagenesis using KLD Enzyme Mix (M0554S, New England Biolabs, USA). All constructs were verified by full-length cDNA sequencing (Eurofins Genomics, Germany). Plasmids were linearized with NotI-HF (R3189S, New England Biolabs, USA) and purified using the MinElute Reaction Cleanup Kit (Qiagen, Hilden, Germany). […]
Statistical analysis was performed with GraphPad Prism version 10 software, and data are presented as means ± SEM. Data were assessed for normality using the Shapiro–Wilk test and for homogeneity of variances using Levene’s test. […]

[4] = biological target: chimeric P2X4(P2X2) receptor c2-c5^C116-T186 (Homo sapiens, UniProt Q99571, A122H/A137L/A177Q/A181M/D121V/DEL149-175/E183P/G138D/H140L/INS118S/INS148CVPYYQGPSKTCEVFGWCPVEDGASV/INS179G/K127L/K180T/P120R/P176S/S131D/S136E/S141G/S145R/T123N/T124A/T133V/T139M/V125T/V144L); assay: cell-based
[5] = biological target: T1, chimeric P2X4(P2X2) receptor c10^R301-Q308; design: method as in ref 19 (supplement); settings: read-out: ATP EC50, published value, ref 19 (supplement); cited from earlier work
[6] = biological target: T3, chimeric P2X4(P2X2) receptor c6^N208-S216 (Homo sapiens, UniProt Q99571, I209R/N208D/S216R/T211D/T212G); assay: cell-based
T3 sequence (Q99571 1-388 N208D/I209R/T211D/T212G/S216R): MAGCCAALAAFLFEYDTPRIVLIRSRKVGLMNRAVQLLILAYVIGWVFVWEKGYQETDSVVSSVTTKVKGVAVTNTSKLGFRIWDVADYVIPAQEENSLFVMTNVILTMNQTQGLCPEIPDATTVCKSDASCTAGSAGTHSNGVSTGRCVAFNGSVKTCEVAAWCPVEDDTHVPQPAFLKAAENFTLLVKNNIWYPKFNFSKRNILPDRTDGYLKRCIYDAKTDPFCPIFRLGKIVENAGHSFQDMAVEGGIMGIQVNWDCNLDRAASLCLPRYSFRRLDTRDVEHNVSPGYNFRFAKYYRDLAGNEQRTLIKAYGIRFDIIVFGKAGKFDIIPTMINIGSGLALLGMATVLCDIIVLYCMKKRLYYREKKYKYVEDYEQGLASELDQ

Chain of chimeric P2X4(P2X2) receptor c2-c5^C116-T186 (Q99571 with tags, fused parts or gaps isoform Q99571-3 with the stated changes): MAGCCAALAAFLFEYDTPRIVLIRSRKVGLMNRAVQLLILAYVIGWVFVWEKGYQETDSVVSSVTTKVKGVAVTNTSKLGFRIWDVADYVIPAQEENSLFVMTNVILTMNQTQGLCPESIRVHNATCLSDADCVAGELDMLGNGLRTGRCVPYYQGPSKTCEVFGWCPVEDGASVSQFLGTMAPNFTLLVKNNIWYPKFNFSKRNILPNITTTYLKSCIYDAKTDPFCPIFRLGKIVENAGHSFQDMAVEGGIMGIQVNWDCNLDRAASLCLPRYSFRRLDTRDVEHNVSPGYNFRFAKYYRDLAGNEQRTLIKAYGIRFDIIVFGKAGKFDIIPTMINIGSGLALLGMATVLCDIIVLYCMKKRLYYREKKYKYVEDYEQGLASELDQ
Chain of chimeric P2X4(P2X2) receptor c7^I218-D224 (Q99571 whole entry I218T/Y219F/D220H/A221E/K222A/T223S): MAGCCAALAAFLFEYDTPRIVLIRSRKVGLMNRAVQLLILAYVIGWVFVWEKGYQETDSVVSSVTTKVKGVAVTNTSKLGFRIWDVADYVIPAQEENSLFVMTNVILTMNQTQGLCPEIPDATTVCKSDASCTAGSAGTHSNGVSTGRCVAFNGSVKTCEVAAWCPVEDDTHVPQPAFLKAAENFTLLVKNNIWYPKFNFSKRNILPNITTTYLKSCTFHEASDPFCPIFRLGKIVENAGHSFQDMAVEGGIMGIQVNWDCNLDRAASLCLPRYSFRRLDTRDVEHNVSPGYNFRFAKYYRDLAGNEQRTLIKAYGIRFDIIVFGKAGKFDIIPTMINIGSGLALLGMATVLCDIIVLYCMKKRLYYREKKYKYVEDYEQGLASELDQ
T2 sequence (Q99571 whole entry): as the sequence (Q99571 whole entry I218T/Y219F/D220H/A221E/K222A/T223S) above, with T218I, F219Y, H220D, E221A, A222K, S223T counted along it

SMILES: Nc1ncnc2c1ncn2[C@@H]1O[C@H](COP(=O)(O)OP(=O)(O)OP(=O)(O)O)[C@@H](O)[C@H]1O [ATP, Adenosine 5′-triphosphate]
- EC50 [1]: 0.912 µM
- EC50 of ATP at c10 higher than at wt P2X4 ([1]; calcium influx): 2.4 fold
- EC50 [2]: 1.2 µM
- EC50 [3]: ~10 µM
- EC50 [4]: 2.29 µM
- EC50 [5]: 0.862 µM
- EC50 [6]: 0.589 µM
